Measurements taken from US20180127700A1, “Cell Culture Substrate for Rapid Release and Re-Plating” (priority 2015, published 2018).

Test system: NIH/3T3 mouse embryonic fibroblast cells
Test: Tissue module release/detachment from shape-memory pNIPAAm polymer microbeams upon thermally initiated swelling
Assay type: cell-based
Parameters: tissue module detachment after microbeam swelling (in words): dose or concentration left out as unconfirmed
Details: for effect of treatment on tissue module detachment (in words): all strains tested, pNIPAAm microbeams
Method: NIH/3T3 mouse embryonic fibroblast cells were cultured in 10% NCS growth medium containing 1% antibiotics (10,000 units/ml penicillin and 10,000 μg/ml streptomycin stock solution) at 37° C. in a humidified atmosphere of 5% CO2. To prepare tissue modules, trypsinized fibroblasts were seeded onto the fabricated shape-memory polymer arrays at a density of 500-750 cells/mm^2 and cultured at 37° C. until confluence (24-48 h). Studies of release from low cell density (100 cells/mm^2) were cultured for 24 h.
Rapid release of tissue modules was induced by thermally initiated swelling of the shape-memory polymer beams. 2 ml of cold PBS (4-10° C.) was introduced (1 ml at a time) into the seeded dish containing 2.5 ml of 37° C. medium resulting in cooling to about 27° C. Cell release was monitored via time-lapse image acquisition on a microscope for at least 70 s.
The mode of cell release from shape-memory polymer surfaces was examined by separately treating seeded samples with agents that modulate metabolism, contractility or adhesion.
To investigate the effect of surface strain on attached cells, the concentration of the network crosslinker (MBAm) in the prepolymer solution was varied from 1 to 4% before MIMIC processing. The one-dimensional width-wise strain in each microbeam was calculated from phase contrast micrographs as follows: […]
where ε is the Cauchy strain, Wcollapsed is the width of the polymer beam in the collapsed state and Wswollen is the width of the polymer beam in the swollen state. Cell detachment was calculated as the percent of cells released from the microbeams within 3 min after thermal stimulation.

| Compound | cell release after initiating shape change (in words) (2 mM DTSSP for 30 min prior to release, within 5 min of initiating shape change) | effect of treatment on tissue module detachment (in words) | tissue module detachment after microbeam swelling (in words) (Y-27632 for 30 min prior to release, large strains (ε>0.25)) |
| --- | --- | --- | --- |
| O=C(CCSSCCC(=O)ON1C(=O)CC(S(=O)(=O)O)C1=O)ON1C(=O)CC(S(=O)(=O)O)C1=O (stereo not shown) [DTSSP, 3,3′-dithiobissulfosuccinimidylpropionate] | significant cell release was not observed | prevented tissue module detachment | – |
| C[C@@H](N)[C@H]1CC[C@H](C(=O)Nc2ccncc2)CC1 [Y-27632] | – | prevented tissue module detachment | primarily remained attached |
